One may read the IC50 as the concentration that inhibits the measured activity by half. A lower IC50 goes with higher potency.

Here are results for 21 molecules from US12435060B2, “Acylamino bridged heterocyclic compound, and composition and application thereof” (BEIJING SCITECH-MQ PHARMACEUTICALS LIMITED, priority 2019, dated 2025).

Molecules are shown by their SMILES.

The test system of the test is HT29 cells. In words: Inhibition of cell necrosis (CCK8 method), induced programmed necrosis of HT29 cells. It is filed as cell-based. To be noted: Homo sapiens, HT-29; rescue from necrosis induced by TNF-α 20 ng/mL, AT-406 1 μM, Z-VAD-FMK 20 μM; 16-20 hours; CCK-8, OD 450 nm. The gist of the method: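 HT29 cells in McCOY's 5A with 10% FBS were pre-treated for 30 min with compound (9 fourfold steps, 25000 to 0.38 nM final, 0.25% DMSO). Necrosis was then induced with TNF-α 20 ng/mL, AT-406 1 μM and Z-VAD-FMK 20 μM for 16-20 h. Viability was read by CCK-8 OD450, normalized between uninduced and induced wells, and IC50 was curve-fitted.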

Regarding `CC(C)(O)CCCOc1ccc(Cl)c(-c2cc(NC(=O)c3nnc(Cc4ccccc4F)[nH]3)ncc2F)c1` [Example 409], the IC50 is not above 100 nM. Next, `CC(C)(O)CCCOc1ccc(Cl)c(-c2cc(NC(=O)c3nnc(CC4CCCCC4)[nH]3)ncc2F)c1` [Example 410, N-(4-(2-chloro-5-((4-hydroxy-4-methylpentyl)oxy)phenyl)-5-fluoropyridin-2-yl)-5-(cyclohexylmethyl)-4H-1,2,4-triazole-3-carboxamide]: not above 100 nM. With `CC(C)(O)CCCOc1ccc(Cl)c(-c2cc(NC(=O)c3nnc(Cc4ccccc4F)[nH]3)ncc2Cl)c1` [Example 411, N-(5-chloro-4-(2-chloro-5-((4-hydroxy-4-methylpentyl)oxy)phenyl)pyridin-2-yl)-5-(2-fluorobenzyl)-4H-1,2,4-triazole-3-carboxamide] the figure was 100 to 1000 nM; with `CC(C)(O)CCCOc1ccc(Cl)c(-c2cc(NC(=O)c3nnc(CC4CCCCC4)[nH]3)ncc2Cl)c1` [Example 412, N-(5-chloro-4-(2-chloro-5-((4-hydroxy-4-methylpentyl)oxy)phenyl)pyridin-2-yl)-5-(cyclohexylmethyl)-4H-1,2,4-triazole-3-carboxamide], 100 to 1000 nM; with `Cc1cnc(NC(=O)c2nnc(Cc3ccccc3F)[nH]2)cc1-c1cc(OCCCC(C)(C)O)ccc1Cl` [Example 413, N-(4-(2-chloro-5-((4-hydroxy-4-methylpentyl)oxy)phenyl)-5-methylpyridin-2-yl)-5-(2-fluorobenzyl)-4H-1,2,4-triazole-3-carboxamide], 100 to 1000 nM.

Molecule `Cc1cnc(NC(=O)c2nnc(CC3CCCCC3)[nH]2)cc1-c1cc(OCCCC(C)(C)O)ccc1Cl` [Example 414, N-(4-(2-chloro-5-((4-hydroxy-4-methylpentyl)oxy)phenyl)-5-methylpyridin-2-yl)-5-(cyclohexylmethyl)-4H-1,2,4-triazole-3-carboxamide] returned a 50% inhibitory concentration (IC50) of 100 to 1000 nM. Next, `CCC(O)(CC)CCCOc1ccc(Cl)c(-c2cc(NC(=O)c3nnc(Cc4ccccc4F)[nH]3)ncc2F)c1` [Example 415, N-(4-(2-chloro-5-((4-ethyl-4-hydroxyhexyl)oxy)phenyl)-5-fluoropyridin-2-yl)-5-(2-fluorobenzyl)-4H-1,2,4-triazole-3-carboxamide]: not above 100 nM; `CCC(O)(CC)CCCOc1ccc(Cl)c(-c2cc(NC(=O)c3nnc(CC4CCCCC4)[nH]3)ncc2F)c1` [Example 416, N-(4-(2-chloro-5-((4-ethyl-4-hydroxyhexyl)oxy)phenyl)-5-fluoropyridin-2-yl)-5-(cyclohexylmethyl)-4H-1,2,4-triazole-3-carboxamide]: not above 100 nM; `CCC(O)(CC)CCCOc1ccc(Cl)c(-c2cc(NC(=O)c3nnc(Cc4ccccc4F)[nH]3)ncc2Cl)c1` [Example 417, N-(5-chloro-4-(2-chloro-5-((4-ethyl-4-hydroxyhexyl)oxy)phenyl)pyridin-2-yl)-5-(2-fluorobenzyl)-4H-1,2,4-triazole-3-carboxamide]: 100 to 1000 nM. Next, `CCC(O)(CC)CCCOc1ccc(Cl)c(-c2cc(NC(=O)c3nnc(CC4CCCCC4)[nH]3)ncc2Cl)c1` [Example 418, N-(5-chloro-4-(2-chloro-5-((4-ethyl-4-hydroxyhexyl)oxy)phenyl)pyridin-2-yl)-5-(cyclohexylmethyl)-4H-1,2,4-triazole-3-carboxamide]: 100 to 1000 nM.

Molecule `CC(C)(O)CCCCOc1ccc(Cl)c(-c2cc(NC(=O)c3nnc(Cc4ccccc4F)[nH]3)ncc2F)c1` [Example 419, N-(4-(2-chloro-5-((5-hydroxyl-5-methylhexyl)oxy)phenyl)-5-fluoropyridin-2-yl)-5-(2-fluorobenzyl)-4H-1,2,4-triazole-3-carboxamide] came in with an IC50 not above 100 nM. Next, `CC(C)(O)CCCCOc1ccc(Cl)c(-c2cc(NC(=O)c3nnc(Cc4ccccc4F)[nH]3)ncc2Cl)c1` [Example 420, N-(5-chloro-4-(2-chloro-5-((5-hydroxyl-5-methylhexyl)oxy)phenyl)pyridin-2-yl)-5-(2-fluorobenzyl)-4H-1,2,4-triazole-3-carboxamide]: 100 to 1000 nM; `CC(C)(O)CCCCOc1ccc(Cl)c(-c2cc(NC(=O)c3nnc(CC4CCCCC4)[nH]3)ncc2Cl)c1` [Example 421, N-(5-chloro-4-(2-chloro-5-((5-hydroxyl-5-methylhexyl)oxy)phenyl)pyridin-2-yl)-5-(cyclohexylmethyl)-4H-1,2,4-triazole-3-carboxamide]: 100 to 1000 nM; `O=C(Nc1cc(-c2cc(OCC3CCOCC3)ccc2Cl)c(F)cn1)c1nnc(Cc2ccccc2F)[nH]1` [Example 422, N-(4-(2-chloro-5-((tetrahydro-2H-pyran-4-yl)methoxy)phenyl)-5-fluoropyridin-2-yl)-5-(2-fluorobenzyl)-4H-1,2,4-triazole-3-carboxamide]: not above 100 nM. With `O=C(Nc1cc(-c2cc(OCC3CCOCC3)ccc2Cl)c(F)cn1)c1nnc(CC2CCCCC2)[nH]1` [Example 423, N-(4-(2-chloro-5-((tetrahydro-2H-pyran-4-yl)methoxy)phenyl)-5-fluoropyridin-2-yl)-5-(cyclohexylmethyl)-4H-1,2,4-triazole-3-carboxamide] the figure was not above 100 nM; with `O=C(Nc1cc(-c2cc(OCC3CCOCC3)ccc2Cl)c(Cl)cn1)c1nnc(Cc2ccccc2F)[nH]1` [Example 424, N-(5-chloro-4-(2-chloro-5-((tetrahydro-2H-pyran-4-yl)methoxy)phenyl)pyridin-2-yl)-5-(2-fluorobenzyl)-4H-1,2,4-triazole-3-carboxamide], 100 to 1000 nM. With `O=C(Nc1cc(-c2cc(OCC3CCOCC3)ccc2Cl)c(Cl)cn1)c1nnc(CC2CCCCC2)[nH]1` [Example 425, N-(5-chloro-4-(2-chloro-5-((tetrahydro-2H-pyran-4-yl)methoxy)phenyl)pyridin-2-yl)-5-(cyclohexylmethyl)-4H-1,2,4-triazole-3-carboxamide] the figure was 100 to 1000 nM. In the case of `Cc1cnc(NC(=O)c2nnc(Cc3ccccc3F)[nH]2)cc1-c1cc(OCC2CCOCC2)ccc1Cl` [Example 426, N-(4-(2-chloro-5-((tetrahydro-2H-pyran-4-yl)methoxy)phenyl)-5-methylpyridin-2-yl)-5-(2-fluorobenzyl)-4H-1,2,4-triazole-3-carboxamide], the 50% inhibitory concentration (IC50) was in the range of 100 to 1000 nM.

Regarding `Cc1cnc(NC(=O)c2nnc(CC3CCCCC3)[nH]2)cc1-c1cc(OCC2CCOCC2)ccc1Cl` [Example 427, N-(4-(2-chloro-5-((tetrahydro-2H-pyran-4-yl)methoxy)phenyl)-5-methylpyridin-2-yl)-5-(cyclohexylmethyl)-4H-1,2,4-triazole-3-carboxamide], the 50% inhibitory concentration (IC50) fell in the range of 100 to 1000 nM.

For `O=C(Nc1cc(-c2cc(OCCC3CCOCC3)ccc2Cl)c(F)cn1)c1nnc(Cc2ccccc2F)[nH]1` [Example 428, N-(4-(2-chloro-5-(2-(tetrahydro-2H-pyran-4-yl)ethoxy)phenyl)-5-fluoropyridin-2-yl)-5-(2-fluorobenzyl)-4H-1,2,4-triazole-3-carboxamide], the IC50 was not above 100 nM. Next, `O=C(Nc1cc(-c2cc(OCCC3CCOCC3)ccc2Cl)c(F)cn1)c1nnc(CC2CCCCC2)[nH]1` [Example 429, N-(4-(2-chloro-5-(2-(tetrahydro-2H-pyran-4-yl)ethoxy)phenyl)-5-fluoropyridin-2-yl)-5-(cyclohexylmethyl)-4H-1,2,4-triazole-3-carboxamide]: not above 100 nM.
